Test results: patent US12083111B2, “Use of hexokinase 2/mitochondria-detaching compounds for activating immune responses” (Vidac Pharma Ltd., priority 2016, dated 2024)

Key:
[1] = test system: primary Balb/C mouse splenocytes (CD8+ T cells); assay: Activated primary splenocytes: FACS for CD44, CD62L and live cells; format: cell-based
Method: FIGS. 7A-F. Formula C administration shifts effector CD8+ T cells to central memory cells. Primary Balb/C mouse splenocytes were grown in culture and activated by anti-CD3e and anti CD28 antibodies to shift them towards CD8+/CD4+ phenotype. Cells were then treated with Formula C (FIG. 7E), 2-DG (2-deoxyglucose, positive control) (FIG. 7C), or vehicle (FIG. 7B, FIG. 7D) for 24 hours followed by FACS analysis for CD44 and CD62L.
Spleens from the 2 BALB/C female mice (8.5 weeks old) were injected with cold PBS in a […] to obtain cell suspension, using a 27 g needle. The spleens were then crushed using the back of a 10 ml syringe. The suspension was passed through a 21 g needle and filtered using a 70 um cells strainer. The plate was washed once with 10 ml PBS and the solution was filtered as well. Cells were centrifuged for 10 min at 1200 rpm, 4° C. The pellet was broken on the grill and re-suspended in 10 ml AKC X1 lysis buffer (1:10 dilution of X10 stock in Ultra-Pure Water). After 5 min on ice, PBS was added to a final volume of 50 ml, and cells were centrifuged for 10 min at 1200 rpm, 4° C. Pellet was re-suspended in 10 ml PBS and washed twice. After washing, pellet was re-suspended in 20 ml DCs medium and passed through a 40 μm cell strainer. Cells were suspended to 3×10^6 ml with DC medium and supplemented with 1:1000 (100 Units/ml) hIL-2 and 1:1000 (1 ug/ml) anti-CD28.
The cells were seeded 1 ml/well in a 24-well plate precoated with 5 μg/ml 250 μl/well of anti-CD3e and carefully washed twice with 0.5 ml PBS (−/−), cells were added on the side of the wells to avoid washing away the antibody.
Splenocytes were plated at 10^6 cells/well in a 24-well plate coated with 5 μg/ml anti-CD3e with soluble anti CD28 2 μg/ml and IL-2 100 units/ml. […]
On the following day, cells were stained with: ghost dye 1 ul/sample (live/dead), and the following antibodies: CD62L, CD44, CD3, CD4, CD8 and analyzed by fluorescence-activated cell sorting (FACS).

[2] = test system: CT26 mouse colorectal cancer cells; assay: CT26 syngeneic colorectal cancer model: tumor volume; format: in vivo; settings: Balb/C mice, SC with esterase-inhibitor BNPP (IP)
Method: (§1) Colorectal cancer was induced in Balb/C mice using CT26 mouse colorectal cancer cells. Formula C was administered SC with esterase-inhibitor BNPP (IP).

B16-F10 melanoma mice = assay: Ear inflammation score in the mouse B16-F10 melanoma model; format: in vivo; settings: scale 0-4, topical
Method: (§2) Female C57Bl/6 mice at 8 weeks of age were purchased from Harlan, Jerusalem, Israel. The animals were housed (6 or 7/cage) under controlled conditions (temperature, light, humidity) and given food and water ad libitum. After 14 days of acclimatization, the animals were inoculated with 0.25*10^6 B16-F10 melanoma cells/mouse in 30 μl PBS under the skin of the right ear of each mouse.
(§3) The mice were inoculated with B16-F10 melanoma cells and divided randomly into […] (9 mice each): a) B16-F10 inoculated, untreated; and b) B16-F10 inoculated, Formula C (50% v/v in olive oil) treated
(§4) The treatment was initiated when the tumors reached the target volume of approximately 1 mm^3. Drug was topically administered to the area of the tumor daily for 18 days.
Inflammation was graded on a scale of 0-4 as: 0 (absence of inflammation), 1 (redness), 2 (tissue inflammation), 3 (pronounced tissue inflammation), and 4 (damage to the ear).

B16-F10 melanoma cells = assay: Topical treatment in the mouse B16-F10 melanoma model: tumor volume; format: in vivo; settings: 50% v/v in olive oil
Method: Mouse melanoma (B16-F10) cells were used. Mouse B16-F10 melanoma cells were maintained in DMEM. Media was supplemented with 10% heat-inactivated FCS, penicillin (100 U/ml), streptomycin (100 μg/ml), Sodium pyruvate (2 mM), and L-glutamine (4 mM). Confluent cultures were washed with PBS, detached with trypsin (0.25%), centrifuged, and subcultured in 96-well microtiter test plates.
as §2, §3, §4

[3] = test system: skin of UVB-exposed SKH-1 mice; assay: UVB-exposed SKH-1 mouse AK/cSCC model: histology and IHC of immune cells in skin; format: in vivo
Method: The formulation ingredients for vehicle, 2.5%, and 5% Formula C ointment consisted of: 32% Gelucire44/14® (Gattefossé, Saint-Priest, France), and 68% combined Labrasol® (Gattefossé, Saint-Priest, France) with corresponding amount of Formula C (w/w). New ointments were prepared every 2 weeks. The 40% topical solution was prepared just prior to use by mixing (w/w) 60% propylene glycol (Sigma, St. Louis, MO, USA) with 40% Formula C.
UVB-induced skin damage was adopted from previous publications. Forty-eight SKH-1 hairless female mice were chronically exposed to 1.25 times the Minimal Erythemal Dose (MED) of UVB radiation. Lamp VL-6.M was used, irradiating at 312 nm with an intensity of 0.89 mW/cm2 (validated on Day 44) at a distance of 15 cm. Determination of UVB irradiation Minimal Erythemal Dose (MED) was performed prior to the beginning of the study. Animals were UVB irradiated for different duration (starting at 30 sec) and the presence of erythema was recorded 24 and 48 hours later. 1.25 times the MED of UVB irradiation was established to be equal to an exposure time of 5 min. Mice were UVB irradiated for 4-5 min at each irradiation session during the 16 weeks of pre-treatment disease induction. Prior to every irradiation session, the lamp was turned on for 5 min to ensure it reaches its maximal intensity. The irradiation schedule was five times a week for two weeks, one week off, and then three times a week through week 16. By that time, more than 60% of the animals had developed at least one SCC lesion. Three days after the final irradiation dose, the mice were randomly assigned to 1 of 4 treatment groups (N=12 mice/group), with similar tumor burden distribution between groups, and a 50-day treatment phase started. The 6 cm^2 (2×3 cm) treatment area was marked on the back of the mice with a black eight points rectangle tattoo. Five spare mice with the highest tumor burden were excluded from the main study. Treatment groups included: vehicle, 2.5% or 5% Formula C ointment, 50 μl of which was applied once-daily for 50 days, or 50 μl of 40% Formula C topical solution applied once-daily for the first 5 days of every three-week cycle (total of three treatment cycles). Following administration, each animal was placed in individual cage without bedding for 1.5 hours, until the ointment was absorbed.
Histopathological analysis and IHC was performed according to standard protocols. Primary antibodies used: Rabbit anti-CD3 (SP7), rabbit anti-F4/80 (SB-M3072, SB-M4152, Nordic Biosite, Täby, Sweden), mouse anti-Langerin/CD207 (DDX0361, Dendritics, Lyon, France). A polymer system was used as a secondary antibody (KDB-10046 and KDB-10007, Nordic Biosite, Täby, Sweden). Semi-quantitative analysis was done in a blinded manner by a single experienced pathologist scoring ×40 high power fields, 7 different fields per slide.
Statistical analysis was carried out using Graphpad Prism version 5.03 (Graphpad Software, San Diego, CA).

[4] = test system: macrophages in CT26 tumors; assay: FACS of CT26 tumors for macrophage markers MHCII and CD206 (M2 to M1 shift); format: in vivo, mouse; settings: 150 mg/kg, day 20
Method: FIG. 6B. Formula C administration shifts macrophages in vivo from pro-tumor (M2) macrophages to antitumor (M1) macrophages. CT26 tumors from Formula C or vehicle-treated Balb/C mice with CT26 mouse colorectal cancer was analyzed for MHCII marker by FACS. Dark color: Vehicle treated CT26 tumors from Balb/C mice (day 20). Light color: Formula C (150 mg/kg) treated CT26 tumors from Balb/C mice (day 20).
FIG. 6C. Formula C administration shifts macrophages in vivo from pro-tumor (M2) macrophages to antitumor (M1) macrophages. CT26 tumors from Formula C or vehicle-treated Balb/C mice with CT26 mouse colorectal cancer was analyzed for CD206. Dark color: Vehicle treated CT26 tumors from Balb/C mice (day 20). Light color: Formula C (150 mg/kg) treated CT26 tumors from Balb/C mice (day 20).
as §1
Pro-tumor M2 Macrophages are characterized by low MHCII and high CD206. In contrast, anti-tumor M1 Macrophages are characterized by high MHCII and low CD206. CT26 tumors from Formula C or vehicle-treated Balb/C mice with CT26 mouse colorectal cancer were analyzed for MHCII (FIG. 6B) and CD206 (FIG. 6C) levels 20 days after treatment started.

[5] = test system: mouse bone marrow-derived macrophages (BMDM); assay: IL-1β secretion and viability in primary bone marrow-derived macrophages; format: cell-based; settings: BALB/C or C57BL BMDM
Method: BALB/C mouse bone marrow-derived macrophages (BMDM) or C57BL mouse bone marrow-derived macrophages were seeded at 3×10^4 cells/well in 96 well plates. The following day, cells were stimulated with interferon-gamma (IFNγ) overnight 50 ng/ml. Then Ultra-pure LPS (100 ng/ml) was added for 4 hours, followed by compound treatment for overnight, except for ATP (all compounds were added on top); ATP for 40 min. ELISA was performed on supernatants for mouse IL-1β detection. ATP and 2-DG were used as positive controls. No signal without IFN-γ even when seeded at 100,000 cells per well.

[6] = test system: THP-1 human monocytes differentiated to macrophages; assay: IL-1β secretion from LPS-stimulated THP-1-derived macrophages (ELISA); format: cell-based; settings: PMA-differentiated, ELISA of culture medium
Method: FIG. 4. Formula C stimulates IL-1β secretion in activated human macrophages in vitro. THP-1 human monocytes were differentiated to mature macrophages and stimulated with LPS (Lipopolysaccharide) followed by Formula C treatment. Secreted IL-1β was analyzed in the culture medium by ELISA.
The human monocyte cell line, THP-1, was grown in 10% FCS in RPMI medium. Cells were plated in 24 well plate, 5*10^6 cells/well and were differentiated to macrophages in the presence of 0.5 uM PMA (phorbol 12-myristate 13-acetate) for 24 hr. Media was replaced to contain LPS (10 ug/mL), 24 hr stimulation. ATP was added for 2 hours. Supernatants were collected and assayed by ELISA for the presence of IL-1β.

[7] = high dose (40%) group, trending also at lower doses
[8] = topical 2.5%, 5% ointment or 40% solution, 50-day treatment phase

## O=CC[C@@H](O)[C@H](O)[C@H](O)CO [Formula 2-DG, 2-deoxyglucose, reference compound]
[1]; stimulated splenocytes, 24 hours treatment, ghost dye
  percentage of live cells: Neither Formula C nor 2-DG treatment significantly affected the percentage of live cells

## CC/C=C\CC1C(=O)CCC1CC(=O)Oc1cccc2cccnc12 (stereo not drawn) [Formula C]
[2]
  tumor volume: decreased tumor volume
B16-F10 melanoma mice; before the 18th day of treatment
  average inflammation score: over 3
B16-F10 melanoma mice; by about the 15th day of treatment
  average inflammation score: about 3
B16-F10 melanoma cells; topical daily for 18 days, after day 11
  tumor volume compared with untreated group: significantly lower than the tumor volume in the untreated group
B16-F10 melanoma cells; topical daily, C57Bl/6 mice, right ear, first 11 days
  tumor growth: no tumor growth for 11 days
[3]; [7]
  CD3+ T cells in skin versus vehicle-treated: statistically-significant increase
  Langerin+ dendritic cells in skin versus vehicle-treated: statistically-significant increase
[3]; [8]
  mast cells in skin (toluidine blue) versus vehicle-treated: statistically significant, dose-related increase
  overall inflammation (H&E staining) versus vehicle-treated: without apparent difference
[3]; topical, 50-day treatment phase, data not shown
  F4/80 general staining for macrophages: no change
[4]
  CD206 levels versus vehicle-treated: lower CD206 levels
  MHCII levels versus vehicle-treated: higher MHCII levels
[5]; IFNγ then LPS, compound overnight, ELISA
  IL-1β secretion: dose-dependently elicited IL-1β secretion
[5]; even at high dosage
  cell viability: little effect on cell viability
[6]
  IL-1β secretion: induced IL-1β secretion
[1]; anti-CD3e/anti-CD28 stimulated splenocytes, 24 hours treatment
  CD44 and CD62L expression (shift from effector to memory cells) versus vehicle-treated: higher CD44 and higher CD62L expression
[1]; female, BALB/c, mouse, 24 h
  percentage of live cells: Neither Formula C nor 2-DG treatment significantly affected the percentage of live cells
